Measurements reported in patent publication US4440933A, “Process for preparing 1,2,5-thiadiazoles” (Bristol-Myers Company, priority 1983, dated 1984).
Read-outs that look alike come from different tables or passages of the source.

Key:
histamine H2-receptor = target: T1, histamine H2-receptor (Cavia porcellus, UniProt P47747); conditions: Black et al., Nature, 236, 385 (1972); cited from earlier work
T1 construct: The spontaneously beating right atrium was dissected free from other tissues; from tissue; host or cells: isolated spontaneously beating right atrium of male Hartley strain guinea pigs

peptic ulcer disease = conditions: clinical evaluation, Gray et al., Lancet, 1, 8001 (1977); cited from earlier work
gastric acid secretion = assay: Gastric antisecretory activity in the gastric fistula rat; format: in vivo, rat (male Long Evans); conditions: sc, read-out: ED50 sc

T1 sequence (P47747 whole entry): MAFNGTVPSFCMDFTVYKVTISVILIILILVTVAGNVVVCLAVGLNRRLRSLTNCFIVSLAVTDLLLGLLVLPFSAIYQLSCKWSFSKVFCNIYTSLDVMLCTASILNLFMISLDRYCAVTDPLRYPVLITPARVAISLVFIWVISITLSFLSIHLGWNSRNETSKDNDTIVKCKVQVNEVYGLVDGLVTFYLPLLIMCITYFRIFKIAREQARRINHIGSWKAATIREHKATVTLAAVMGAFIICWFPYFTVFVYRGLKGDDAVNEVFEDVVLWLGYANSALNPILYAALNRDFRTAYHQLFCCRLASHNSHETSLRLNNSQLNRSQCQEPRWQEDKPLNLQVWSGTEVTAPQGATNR

SMILES | ED50 (gastric acid secretion; gastric fistula rat) [µmol/kg] | further results
CNC(=S)NCCCCc1cnc[nH]1 [burimamide] | – | type of antagonism at histamine H2-receptors (histamine H2-receptor): competitive antagonist
CN/C(=N/CCSCc1nc[nH]c1C)NC#N [cimetidine, reference compound] | – | therapeutic effect in treatment of peptic ulcer disease (peptic ulcer disease): effective therapeutic agent in the treatment of peptic ulcer disease; ED50 (gastric acid secretion; Rattus norvegicus): 3.48 µmol/kg
CN(C)Cc1ccc(CSCCNc2nsnc2N)o1 [Example 10, 3-amino-4-{2-[(5-dimethylaminomethyl-2-furyl)-methylthio]ethylamino}-1,2,5-thiadiazole] | 0.77 | –
Nc1nsnc1NCCCOc1cccc(CN2CCCCC2)c1 [Example 3, 3-Amino-4-[3-(3-piperidinomethylphenoxy)propylamino]-1,2,5-thiadiazole] | 0.094 | –
Cc1cc(CSCCNc2nsnc2N)sc1CN(C)C [Example 11, 3-Amino-4-{2-[(5-dimethylaminomethyl-4-methyl-2-thienyl)methylthio]ethylamino}-1,2,5-thiadiazole] | ~0.5 | –
Nc1nsnc1NCCCOc1cccc(CN2CCCC2)c1 [Example 4, 3-Amino-4-[3-(3-pyrrolidinomethylphenoxy)propylamino]-1,2,5-thiadiazole] | 0.18 | –
